Patent US9464064B2, “HCV helicase inhibitors and methods of use thereof” (University of Kansas, priority 2011, dated 2016)

Target: T1, HCV NS3 helicase NS3h_1b(con1) (Hepatitis C virus genotype 1b, UniProt Q9WMX2)
T1 construct: truncated C-terminally His-tagged NS3 proteins lacking the N-terminal protease, called NS3h; His-tag (C); made in house
Assay: MBHA screen of NCI mechanistic set library at 20 μM (percent inhibition, compound interference)
Type: biochemical
Conditions: compounds at 20 μM; for Inh. (%) (Inhibition): calculated from Equation 1
Description: All molecular beacon-based helicase assays (MBHAs) were performed according to known methods (Belon & Frick (2008) supra; Belon & Frick (2009) supra). […] In each flat, black 384-well plate, 56 compounds were tested, in triplicate, along with three negative controls (DMSO only), three positive controls (500 nM dT20), and two wells with no enzyme. Fluorescence was read before ATP (F0) addition and 30 minutes after ATP was added to 1 mM (F30) using a Tecan Infinite M200 fluorescence microplate reader with excitation and emission wavelengths set to 643 and 670 nm, respectively. Percent inhibition was calculated with equation 1, and compound interference in the MBHA was calculated with equation 2.
In Equations 1 and 2, Fc0 is the fluorescence of the reactions containing the test compound before adding ATP, Fc30 is the fluorescence of the test compound reaction 30 minutes after adding ATP. F(−)0 is the average of three DMSO-only negative control reactions before adding ATP and F(−)30 is the average of three DMSO-only reactions 30 minutes after adding ATP.
To identify HCV helicase inhibitors, the MBHA was first used to screen the National Cancer Institute Developmental Therapeutics Program's mechanistic set library. In total, 827 compounds (at 20 μM) were screened using a MBHA with a DNA substrate (Table 1). Compounds were ranked by their ability to inhibit HCV helicase-catalyzed DNA unwinding as calculated from Equation 1.
Compound interference in the MBHA was evaluated by comparing the fluorescence of reactions containing each compound to the fluorescence of DMSO-only negative controls before ATP was added.

[1] = MBHA with DNA substrate, assay interference calculated with Equation 2
[2] = assay interference calculated with Equation 2 (fluorescence vs DMSO-only controls before ATP)

T1 sequence (Q9WMX2 1192-1657): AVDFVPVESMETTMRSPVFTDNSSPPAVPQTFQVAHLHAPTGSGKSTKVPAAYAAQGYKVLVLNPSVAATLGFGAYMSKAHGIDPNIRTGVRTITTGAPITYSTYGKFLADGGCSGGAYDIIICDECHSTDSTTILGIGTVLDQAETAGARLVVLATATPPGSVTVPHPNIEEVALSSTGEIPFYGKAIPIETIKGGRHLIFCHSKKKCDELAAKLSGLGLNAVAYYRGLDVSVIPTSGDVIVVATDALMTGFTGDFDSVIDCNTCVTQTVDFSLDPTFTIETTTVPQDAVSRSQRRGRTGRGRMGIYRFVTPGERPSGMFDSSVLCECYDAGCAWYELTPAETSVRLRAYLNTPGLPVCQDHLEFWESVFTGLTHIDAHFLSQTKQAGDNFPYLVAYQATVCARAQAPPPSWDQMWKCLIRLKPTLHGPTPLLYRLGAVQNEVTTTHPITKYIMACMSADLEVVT

SMILES | Int.* (Ratio) (Interference) [1] | Inh. (%) (Inhibition) (MBHA with DNA substrate) | Inh. (%) (Inhibition) (MBHA with a DNA substrate) | Int.* (Ratio) (Interference) [2]
O=S(=O)(O)c1cc(N=Nc2cc(S(=O)(=O)O)c3ccccc3c2O)ccc1/C=C/c1ccc(N=Nc2cc(S(=O)(=O)O)c3ccccc3c2O)cc1S(=O)(=O)O.[Na+] [Compound 34931] | 0.90 Ratio | 89.2% | – | –
O=C(C[n+]1ccc2ccccc2c1)c1ccc2ccc3ccccc3c2c1 [Compound 35489] | 1.04 Ratio | 18.7% | – | –
Nc1nc(SCCc2ccccc2)c2[nH]cnc2n1 [Compound 35866] | 0.93 Ratio | 15.3% | – | –
O=S1(=O)CCN(c2ccccc2CC(c2c[nH]c3ccccc23)c2c[nH]c3ccccc23)CC1 [Compound 35949] | 1.25 Ratio | −8.9% | – | –
C=C1C(=O)OC2CC1C(OC(C)=O)C/C(C)=C/CC/C(C)=C\CCC2(C)O (stereo not shown) [Compound 36437] | 0.99 Ratio | −17.3% | – | –
C[C@@H]1C[C@H]2OC(=O)[C@@]3(C)CCC[C@@](C)([C@@H]23)[C@@]1(O)CCc1ccoc1 [Compound 36693] | 0.76 Ratio | −8.8% | – | –
Nc1nc(SCc2ccccc2Cl)c2[nH]cnc2n1 [Compound 36826] | 0.98 Ratio | 3.4% | – | –
COc1nc(N)nc2nc[nH]c12 [Compound 37364] | 1.01 Ratio | 16.5% | – | –
Clc1ccc(C(c2ccccc2Cl)C(Cl)Cl)cc1 (stereo not shown) [Compound 38721] | 0.93 Ratio | 0.3% | – | –
O=C1C(CN2CCCCC2)CCCC1CN1CCCCC1 (stereo not shown) [Compound 39202] | 0.91 Ratio | 4.5% | – | –
Cc1nc(Cl)c(C)c(Cl)n1 [Compound 40212] | 0.95 Ratio | 1.1% | – | –
O=C1C(Cl)=C(N2CCN(C3=C(Cl)C(=O)c4ccccc4C3=O)CC2)C(=O)c2ccccc21 [Compound 40341] | – | – | −6.4% | 1.09 Ratio
Nc1nc(SCc2ccccc2Cl)c2ncn(C3OC(CO)C(O)C3O)c2n1 (stereo not shown) [Compound 40666] | – | – | −2.9% | 1.09 Ratio
COc1ccc(/C=C/c2cc(O)cc(O[C@@H]3O[C@H](CO)[C@@H](O)[C@H](O)[C@H]3O)c2)cc1O [Compound 43321] | – | – | −28.3% | 1.07 Ratio
CCN(CC)c1ccc2cc3ccc(=[N+](CC)CC)cc-3oc2c1.[Cl-] [Compound 44690] | 0.66 Ratio | 61.5% | – | –
COC1=C(N)C(=O)c2nc(-c3nc(C(=O)O)c(C)c(-c4ccc(OC)c(OC)c4O)c3N)ccc2C1=O [Compound 45383] | – | – | −19.1% | 1.05 Ratio
CN(C)/N=N/c1nc[nH]c1C(N)=O [Compound 45388] | 0.95 Ratio | 17.5% | – | –
Oc1ccc2ccccc2c1N=Nc1cccc2ccccc12 [Compound 45575] | 0.97 Ratio | 18.4% | – | –
CN1CCN(CCCN2c3ccccc3Sc3ccc(C(F)(F)F)cc32)CC1 [Compound 46061] | 0.93 Ratio | 13.2% | – | –
CC(=O)O[C@]1(C(C)=O)CC[C@H]2[C@@H]3C[C@H](C)C4=CC(=O)C=C[C@]4(C)[C@@]3(F)[C@@H](O)C[C@@]21C [Compound 47438] | 1.18 Ratio | −12.2% | – | –
CC(C)(C)c1ccc(O)c(CN(Cc2cc(C(C)(C)C)ccc2O)C2CCCCC2)c1 [Compound 48151] | 0.98 Ratio | 2.1% | – | –

SMILES | Int.* (Ratio) (Interference) [1] | Inh. (%) (Inhibition) (MBHA with DNA substrate) | Inh. (%) (Inhibition) (MBHA with a DNA substrate) | Int.* (Ratio) (Interference) [2]
[Cl-].c1csc(C[N+]23CN4CN(CN(C4)C2)C3)c1 [Compound 49660] | 0.93 Ratio | 21.2% | – | –
CC[C@]1(O)C[C@@H]2CN(CCc3c([nH]c4ccccc34)[C@@](C(=O)OC)(c3cc4c(cc3OC)N(C)[C@H]3[C@@](O)(C(=O)OC)[C@H](OC(C)=O)[C@]5(CC)C=CCN6CC[C@]43[C@@H]65)C2)C1.O=S(=O)(O)O [Compound 49842] | – | – | 9.9% | 0.98 Ratio
[Cl][Cd][Cl] [Compound 51148] | 0.94 Ratio | 53.4% | – | –
CN(C)[C@@H]1C(=O)C(C(N)=O)=C(O)[C@@]2(O)C(=O)C3=C(O)c4c(O)cccc4C[C@H]3C[C@@H]12 [Compound 51812] | 0.99 Ratio | −8.1% | – | –
C[C@@H]1C[C@H]2CC[C@H](O2)[C@H](C)C(=O)O[C@@H](C)C[C@@H]2CC[C@@H](O2)[C@@H](C)C(=O)O[C@H](C)C[C@H]2CC[C@H](O2)[C@H](C)C(=O)O[C@@H](C)C[C@@H]2CC[C@@H](O2)[C@@H](C)C(=O)O1 [Compound 52141] | 0.83 Ratio | −11.6% | – | –
COc1ccc(-c2cc(=O)c3c(OC)c(OC)c(OC)cc3o2)cc1 [Compound 53908] | 0.82 Ratio | 26.0% | – | –
Nc1nc(-c2cccs2)cs1 [Compound 54297] | – | – | −4.0% | 0.96 Ratio
COc1ccc2oc(-c3ccncc3)cc(=O)c2c1 [Compound 54650] | 1.11 Ratio | 24.7% | – | –
O=C1/C(=C/c2cccs2)Oc2ccccc21 [Compound 56544] | 0.96 Ratio | 1.5% | – | –
COc1cccc(/C=N\NC(=O)C(C)SC(C)C(=O)N/N=C/c2cccc(OC)c2)c1 (stereo not shown) [Compound 56737] | 1.12 Ratio | −7.2% | – | –
Cc1cc2c(C(C)C)c(O)c(O)c(C=O)c2c(O)c1-c1c(C)cc2c(C(C)C)c(O)c(O)c(C=O)c2c1O [Compound 56817] | 0.90 Ratio | −2.0% | – | –
CO[C@@H]1[C@H](O)C[C@@H](O[C@@H]2C[C@H](Oc3cc4cc5c(c(O)c4c(O)c3C)C(=O)[C@@H](O[C@H]3C[C@@H](O[C@H]4C[C@@H](O[C@H]6C[C@](C)(O)[C@@H](OC(C)=O)[C@H](C)O6)[C@H](O)[C@@H](C)O4)[C@H](O)[C@@H](C)O3)[C@H]([C@H](OC)C(=O)[C@@H](O)[C@@H](C)O)C5)O[C@H](C)[C@@H]2OC(C)=O)O[C@@H]1C [Compound 58514] | 1.04 Ratio | 54.9% | – | –
CCCCCCCCCCCCCCCCOCC(O)CO (stereo not shown) [Compound 59269] | 0.96 Ratio | −9.7% | – | –
O=[n+]1c2c(n([O-])c3ccccc31)-c1cccc3cccc-2c13 [Compound 60309] | 0.93 Ratio | 13.6% | – | –
CC12C(=O)OC(=O)C1(C)C1CCC2O1 (stereo not shown) [Compound 61805] | 0.95 Ratio | −0.5% | – | –
CC[C@@]12CCCN3CC[C@]4(c5cccc(OC)c5N(C(C)=O)[C@@H]4CC1)[C@H]32 [Compound 61811] | 0.91 Ratio | −2.8% | – | –
CC(C)C(C)C=CC(C)C1CCC2C3=CC=C4CC(O)CCC4(C)C3CCC21C (stereo not shown) [Compound 62791] | 0.93 Ratio | −9.1% | – | –
CS(=O)(=O)c1nc(N)nc2nc[nH]c12 [Compound 63446] | 0.76 Ratio | 4.3% | – | –
N#Cc1cn([C@@H]2O[C@H](CO)[C@@H](O)[C@H]2O)c2ncnc(N)c12 [Compound 63701] | – | – | −3.8% | 0.98 Ratio
Cl.Nc1ccn([C@@H]2O[C@H](CO)[C@@H](O)[C@@H]2O)c(=O)n1 [Compound 63878] | – | – | 8.3% | 0.89 Ratio
